Experiment: Human HepG2 cell viability assay in 384 well format
Type: toxicity, cell-based
Set-up: dose 125 nL, time 70.5 hour; cytotoxicity at 70.5 h: concentration not given beside the values
Settings: HepG2 cells, read-out: Inhibition

Row | Compound | cytotoxicity at 70.5 h [%]
1 | COC(=O)CCCC(=O)N1CCC(CO)(CCc2ccccc2)CC1 | -11.9
2 | CC1(C)CNC(=O)c2nc(C3CCN(C(=O)C4CC4)CC3)[nH]c2C1 | -11
3 | CNC(=O)C(C)(C)N(C)C(=O)c1cc(COc2ccccc2OC)[nH]n1 | -5.11
4 | CN(CC1Cc2ccccc2CN1C)C(=O)CSc1nccn1C (stereo unspecified) | -8.61
5 | CC(C)Cc1ncc2c(n1)CN(c1cc(N)nc(N)n1)C2 | -1.3
6 | CC(C)Cc1noc(CN(C)C[C@]2(O)CCCN3CCCC[C@@H]32)n1 | -12.8
7 | COc1ccc(C(=O)N2CCC(c3nccn3C(C)C)CC2)cc1OC | 22.5
8 | CC(=O)Nn1c(C)cc(CN2CCCN(Cc3ccncc3)CC2)c1C | -0.666
9 | COc1cccc(N2CCN(Cc3nccc(OC)c3OC)CC2=O)c1 | -0.0493
10 | Cc1cc(N2CCCN3CCC[C@H]3C2)n2nc(C)c(C)c2n1 | -4.24
11 | Cc1ccc2nc(CN3CCCCC3CCn3cccn3)cn2c1 (stereo unspecified) | 6.68
12 | CN(Cc1cccc(-n2cccn2)c1)Cc1c[nH]cn1 | -0.523
13 | CC1(Cc2cccnc2)NCCc2[nH]cnc21 (stereo unspecified) | 10.5
14 | Cc1cc(F)ccc1S(=O)(=O)N1C[C@@H](C)[C@@](C)(O)C1 | -3.25
15 | CC(C)N1CCC(N2CCCC(C(=O)NCC3(C)COC3)C2)CC1 (stereo unspecified) | -3.7
16 | CCN(CC)C(=O)C1CCCN(c2ncnc3oc(C)nc23)C1 (stereo unspecified) | -5.71
17 | CCc1noc(CN(C)C(=O)c2ccccc2-c2ncn[nH]2)n1 | -2.67
18 | CS(=O)(=O)N1C[C@@H]2CC[C@H](C1)N(C(=O)Cn1ccc3ccccc31)C2 | -4.09
19 | Cn1cc(C(=O)N2CC[C@H](N3CCOCC3)[C@H](CCCO)C2)cn1 | -12.1
20 | CCCc1nc(C)cc(N2CCC3(CCC(=O)N(CCO)C3)CC2)n1 | -4.4
21 | COCCn1ccnc1-c1cc(CN2CCCCC2)cs1 | 33.9

Row | Compound | cytotoxicity at 70.5 h [%]
22 | CSCc1noc(CNC(=O)C2CCN(C(C)C)CC2)n1 | -12
23 | Cc1nnc(N2CCC(CCn3ccnc3C)CC2)o1 | -5.62
24 | CC(=O)NCCC1CCCCN1S(=O)(=O)c1ccc2ccccc2c1 (stereo unspecified) | 4.83
25 | CN(C)c1ccc(C(=O)NCCCc2ccccn2)cn1 | -1.92
26 | Cc1ccnc(Cn2cc(-c3cccc(C(C)N(C)C)c3)nn2)c1 (stereo unspecified) | -6.95
27 | COc1ncc(-c2ccc(O)cc2)c(OC)n1 | -6.77
28 | Cc1cc(C(=O)N2CCCC(C(=O)c3cccs3)C2)c(=O)[nH]c1C (stereo unspecified) | 17.8
29 | CCCc1ccc(CN2CCN(C(=O)NCC)[C@H]3CS(=O)(=O)C[C@H]32)o1 | -15.3
30 | CSCC(=O)N1CCCC(CO)(CC2CC2)C1 (stereo unspecified) | -11
31 | Cc1ccc([C@@H]2CN(C(=O)c3ccsc3)C[C@H]2NC(=O)C2CC2)cc1 | -8.66
32 | CC(C)c1nc(CN(C)C(=O)[C@H](N)Cc2ccc(Cl)cc2)cs1 | 2.45
33 | CC(C)N1CCCC2(CCN(c3nccc(C(F)(F)F)n3)C2)C1=O (stereo unspecified) | -3.02
34 | Cc1cc(C)c2c(c1)C(CC(=O)O)C(=O)N2 (stereo unspecified) | 24.2
35 | CC(C)c1cc(CN2CCN(c3cccnc3)CC2)n(C)n1 | 5.33
36 | Cc1cc(N2CCC3(CCCN(C4CCOCC4)C3=O)C2)ccn1 (stereo unspecified) | -4.29
37 | Cc1ccc(CN(Cc2ccccn2)C(=O)C2CCCCCN2C)s1 (stereo unspecified) | 27.3
38 | CN1CCC(Cc2nc(-c3ccnn3C)n(Cc3ccccc3)n2)CC1 | 12.7
39 | O=C(Cc1ccncc1)N1C[C@@H]2CC[C@H](C1)N(Cc1ccccc1)C2=O | -3.45
40 | O=C(c1ccc(C2CCCN2)s1)N1CCN2CCC1CC2 (stereo unspecified) | -5.88
41 | CCN(Cc1noc(C)n1)C(=O)CCn1c(C)cc2ccccc21 | -6.29
42 | O=C(CCCN1CCCCC1)N1CCC(c2nnc[nH]2)CC1 | -4.84

Row | Compound | cytotoxicity at 70.5 h [%]
43 | Cc1nccn1CCN1C(=O)CC2(CCCC2)CC1=O | -9
44 | Cc1ccnc(NCCNC(=O)Cc2c(C)[nH]c3c(C)ccc(C)c23)c1 | 34.5
45 | CN(C)CC1(O)CCCN(c2ccnc3c(C(F)(F)F)cccc23)C1 (stereo unspecified) | -5.96
46 | COc1nc2c(cc1C(=O)NCCc1nc3c(s1)CCC3)CCC2 | 3.25
47 | CC(C)N1CCC(C(=O)N2CCCN(c3ccccc3)CC2)CC1 | -8.78
48 | CC(=O)N1CCCn2nc(CNC(=O)N3CCCCC3)cc2C1 | 19.2
49 | CCCc1cnc(C)nc1NCCc1nc(C)cc(=O)[nH]1 | -9.64
50 | Cc1cc2cccc(C(=O)N3CC[C@](C)(O)[C@H](C)C3)c2o1 | 14.5
51 | CCc1cc(-c2nccn2-c2ccccc2CN2CCOCC2)on1 | 16.1
52 | CC(=O)N1CCc2c(nc(N(C)C)nc2N(C)CCO)C1 | -2.49
53 | CNc1nc(C(=O)N2CCC3(CCCN(C)C3=O)C2)cs1 (stereo unspecified) | -4.39
54 | O[C@@]1(Cn2cnc(Cl)c2Cl)CCCN2CCCC[C@@H]21 | -12.5
55 | COCCOCC(=O)N1CCCC(c2ncc[nH]2)C1 (stereo unspecified) | -16.6
56 | CC(C)Oc1cccc(F)c1C(C(=O)O)N1CCCC1 (stereo unspecified) | -11.9
57 | Cc1nn(C)c(C)c1NC(=O)c1cccc(CN2CCS(=O)(=O)CC2)c1 | -6.09
58 | Cc1ccc(C(=O)N2C[C@@H]3CC[C@H](C2)N(CC2CCC2)C3)s1 | 7.49
59 | CCNC(=O)[C@@H]1C[C@@H](N)CN1C(=O)c1cc2ccccc2[nH]1 | -1.64
60 | OCC1(Cc2ccc(Cl)cc2)CCN(Cc2cccnc2)CC1 | 10.8
61 | COCC(=O)N1CCCC1c1ccc(C(=O)NCc2ccccc2Cl)s1 (stereo unspecified) | -11.5
62 | CC(C)c1cc(C(=O)N[C@H]2CN(C3CCOCC3)C[C@@H]2C2CC2)no1 | -6.62
63 | COc1ccc(C(=O)N2CCOC(Cc3cccc(C(F)(F)F)c3)C2)o1 (stereo unspecified) | -7.8

Row | Compound | cytotoxicity at 70.5 h [%]
64 | c1ccc(-c2ncn(CCCN3CCOCC3)c2-c2ccncc2)cc1 | -6.69
65 | CCN(CC)CCn1ccnc1-c1cccc(O)c1 | 1.22
66 | Fc1cccc(-c2cccc(N3CCC(NC4CCCOC4)CC3)c2)c1 (stereo unspecified) | 33.8
67 | Cc1cccc(N2CCN(CCC(=O)NCc3cnc(C)cn3)CC2)c1 | 23.9
68 | COc1ccc(CN2CCCC2)cc1Oc1ccc2c(c1)CC(CN)O2 (stereo unspecified) | -11.3
69 | O=C(O)c1cccc(CC2CCN(c3ncc(F)cn3)CC2)c1 | -9.85
70 | CSc1nccc(NCC2CNCCO2)n1 (stereo unspecified) | -5.51
71 | Nc1cccc(-c2cccc3ccnn23)n1 | -6.36
72 | CNc1ccnc(N2C[C@@H]3CC[C@H](C2)N(CCOC)C3=O)n1 | -8
73 | CCCc1nc(C)cc(N2CCNC(C(=O)NC3CC3)C2)n1 (stereo unspecified) | 2.45
74 | Cc1cccn2cc(C(=O)N3CCCN(CC4CC4)C(C(C)C)C3)nc12 (stereo unspecified) | -8.2
75 | N#Cc1cccnc1N1CCCC(CO)(Cc2cccc(Cl)c2)C1 (stereo unspecified) | 2.5
76 | CN(C(=O)Cc1ccn(C)c1)C1CCCN(C2Cc3ccccc3C2)C1 (stereo unspecified) | 1.52
77 | CC(CO)NCc1csc2c1CCCC2 (stereo unspecified) | 0.572
78 | COc1ccccc1-n1nc(-c2ccco2)n(CC(N)=O)c1=O | -7.68
79 | COCCN(Cc1sccc1C)C(=O)c1c(O)cccc1F | -5.43
80 | Cc1ccc(CN2CCN(c3ncccc3Cl)CC2CCO)cc1 (stereo unspecified) | -0.712
81 | CC(C)c1cnc(N2C[C@H](CO)C[C@H](CN3CCOCC3)C2)nc1 | -4.2

Reference: ChEMBL document CHEMBL3507680, “University of Dundee, Gates Library screen for HepG2 cell viability”
